Results published in patent EP4803512A1, “COMPOUND CAPABLE OF INHIBITING CONNEXIN-ASSOCIATED KINASE 1, PREPARATION, AND USE THEREOF” (Xizang Haisco Pharmaceutical Co., Ltd., priority 2023, dated 2025).

Assays:
AAK1 = target: T1, AAK1 (Homo sapiens, UniProt Q2M2I8); test: In vitro AAK1 enzyme activity assay (ADP-Glo); type: biochemical; settings: inhibitory activity against AAK1
T1 construct: purchased Signalchem A01-11G-10
Protocol: Compound stock solution (concentration: 10 mM, dissolved in DMSO) was diluted with DMSO to 0.2 mM and then diluted with DMSO in 5-fold gradient to obtain compound solutions with 10 concentrations. Subsequently, the compound solutions with different concentrations were diluted 50-fold in 1× kinase reaction buffer (containing 40 mM Tris, 20 mM MgCl2, 0.1% BSA and 0.5 mM DTT) for later use. AAK1 (Signalchem, Cat# A01-11G-10) was diluted with 1× kinase reaction buffer to 2-fold the final concentration (final concentrations: 30 nM and 28 nM). AAK1 was added to a 384-well white plate at 2 µL/well, and the compounds were then added at 1 µL/well. The plate was sealed with a plate-sealing film, centrifuged at 1000 rpm for 30 seconds and then placed at room temperature for 10 minutes. […] The RLU (Relative luminescence unit) signal values were read using a Biotek multimode microplate reader, and the percent inhibition was calculated according to the following formula: [1-(LUM compound-LUM positive control) / (LUM negative control-LUM positive control)] × 100. IC50 values were calculated using Graphpad 7.0 software using a four-parameter non-linear fit equation. […]

hERG potassium channel = target: T2, hERG potassium channel (Homo sapiens, UniProt Q12809); test: hERG potassium channel activity assay, manual whole-cell patch clamp; type: cell-based; settings: IC50, inhibition of hERG potassium channel current, CHO cells stably expressing hERG
T2 construct: expressed in transfected cells
T2 sequence (Q12809 whole entry): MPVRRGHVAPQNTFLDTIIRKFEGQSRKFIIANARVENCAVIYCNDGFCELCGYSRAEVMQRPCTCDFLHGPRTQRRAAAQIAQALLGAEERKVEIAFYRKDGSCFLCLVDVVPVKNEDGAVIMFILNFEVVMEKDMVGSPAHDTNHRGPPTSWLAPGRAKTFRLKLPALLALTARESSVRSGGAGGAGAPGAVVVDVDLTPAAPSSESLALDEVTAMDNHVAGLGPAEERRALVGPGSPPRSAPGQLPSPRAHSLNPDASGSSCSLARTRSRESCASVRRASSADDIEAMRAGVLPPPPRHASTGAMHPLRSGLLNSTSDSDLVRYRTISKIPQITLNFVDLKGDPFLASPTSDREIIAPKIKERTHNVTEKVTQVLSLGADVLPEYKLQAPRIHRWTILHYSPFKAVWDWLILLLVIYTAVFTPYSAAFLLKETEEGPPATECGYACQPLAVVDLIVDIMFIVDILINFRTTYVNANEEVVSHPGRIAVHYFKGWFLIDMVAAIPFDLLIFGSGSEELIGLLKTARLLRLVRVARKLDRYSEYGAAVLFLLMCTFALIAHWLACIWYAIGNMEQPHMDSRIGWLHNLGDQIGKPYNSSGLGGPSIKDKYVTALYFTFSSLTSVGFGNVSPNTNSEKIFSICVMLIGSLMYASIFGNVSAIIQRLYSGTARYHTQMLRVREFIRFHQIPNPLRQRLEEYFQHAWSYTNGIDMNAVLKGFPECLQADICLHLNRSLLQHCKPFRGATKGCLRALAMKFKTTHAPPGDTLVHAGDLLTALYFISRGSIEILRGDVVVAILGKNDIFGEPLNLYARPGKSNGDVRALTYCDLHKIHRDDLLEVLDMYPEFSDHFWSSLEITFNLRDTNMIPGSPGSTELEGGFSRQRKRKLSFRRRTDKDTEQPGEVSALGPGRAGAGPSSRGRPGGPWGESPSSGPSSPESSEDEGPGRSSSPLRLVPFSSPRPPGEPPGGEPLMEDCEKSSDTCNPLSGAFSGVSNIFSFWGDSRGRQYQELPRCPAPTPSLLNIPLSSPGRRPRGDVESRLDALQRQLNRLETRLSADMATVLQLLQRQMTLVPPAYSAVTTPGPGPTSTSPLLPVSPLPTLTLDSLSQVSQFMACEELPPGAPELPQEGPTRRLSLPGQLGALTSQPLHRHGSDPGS
Description: 2.1 Experimental preparation: Experimental platform: manual electrophysiological patch-clamp system; Cell line: Chinese hamster ovary (CHO) cell line stably expressing hERG potassium channel.
2.2. Experimental method: In Chinese Hamster Ovary (CHO) cells stably expressing hERG potassium channel, the whole-cell patch-clamp technique was used to record hERG potassium channel current at room temperature. The glass microelectrodes were pulled from glass electrode blanks (BF150-86-10, Sutter) by a glass microelectrode puller. The tip resistance of the microelectrodes after being filled with intrapipette solution was about 2-5 MΩ. The glass microelectrodes were connected to the patch-clamp amplifier by inserting them into an amplifier probe. The clamping voltage and data recording were controlled and recorded by the pClamp 10 software through a computer, with a sampling frequency of 10 kHz and a filtering frequency of 2 kHz. After the whole cell records were obtained, the cells were clamped at -80 mV, and the step voltage that induced the hERG potassium current (I hERG) was depolarised from -80 mV to +20 mV for 2 s, then repolarised to -50 mV, and returned to -80 mV after 1 s. […]
Compound IC50 was calculated using GraphPad Prism 5 software by fitting according to the following equation: Y = Bottom + (Top−Bottom)/(1+10^(∧)((LogIC50−X)×HillSlope)) [formula] […]

[1] = Pharmacokinetic assay in mice; type: in vivo, ICR mice; settings: plasma
Protocol: 3.1 Experimental animals: Male ICR mice, 20-25 g, 6 mice/compound, purchased from Chengdu Dossy Experimental Animals Co., Ltd.
3.2 Experimental design: on the day of the experiment, the ICR mice were randomly grouped according to their body weights. The animals were fasted with water available for 12-14 h one day before the administration, and were fed 4 h after the administration. Table 3 Administration information
vehicle for intravenous administration: 5%DMA+5%HS-15+90%NS; vehicle for intragastric administration: 0.5% MC; before and after administration, 0.06 mL of blood was taken from the orbit under isoflurane anaesthesia and placed in an EDTAK2 centrifuge tube. The tube was centrifuged at 5000 rpm at 4°C for 10 min, and plasma was collected. The blood sampling time points for both the intravenous administration group and intragastric administration group were 0, 5 min, 15 min, 30 min, 1 h, 2 h, 4 h, 7 h and 24 h. Before analysis and detection, all samples were stored at -80°C, and the samples were quantitatively analysed by LC-MS/MS. Table 4 Pharmacokinetic parameters of test compounds in plasma of mice

[2] = Liver microsomal stability assay, rat liver microsomal model; type: in vitro ADME; settings: rat liver microsomes, 1 µM, 37°C, NADPH
Protocol: In this experiment, liver microsomes of five species, including human, monkey, dog, rat and mouse, were used as in vitro models to evaluate the metabolic stability of the test compound.
At 37°C, 1 µM of the test compound was co-incubated with microsomal protein and coenzyme NADPH. At given time points of the reaction (5 min, 10 min, 20 min, 30 min, and 60 min), the reaction was terminated by adding ice-cold acetonitrile containing an internal standard. The LC-MS/MS method was used to measure the concentration of the test compound in the sample. T1/2 was calculated using the ln value of the percentage of drug remaining in the incubation system and the incubation time. In addition, the intrinsic clearance in liver microsomes CLint(mic) and the intrinsic clearance in liver CLint(Liver) were further calculated. Table 7 Results of test compounds in rat liver microsomal model

[3] = Pharmacokinetic assay in rats; type: in vivo, SD rats; settings: rat, po, plasma, Intragastric administration (5 mg/kg)
Protocol: 4.1 Experimental animals: Male SD rats, about 220 g, 6-8 weeks old, 6 rats/compound, purchased from Chengdu Dossy Experimental Animals Co., Ltd.
4.2 Experimental design: on the day of the experiment, 6 SD rats were randomly grouped according to their body weights. The animals were fasted with water available for 12-14 h one day before the administration, and were fed 4 h after the administration. Table 5 Administration information
Before and after the administration, 0.1 ml of blood was taken from the orbit under isoflurane anaesthesia and placed in an EDTAK2 centrifuge tube. The tube was centrifuged at 5000 rpm at 4°C for 10 min, and plasma was collected. Blood sampling time points for the intravenous administration group: 0, 5 min, 15 min, 30 min, 1 h, 2 h, 4 h, 6 h, 8 h and 24 h; blood sampling time points for the intragastric administration group: 0, 5 min, 15 min, 30 min, 1 h, 2 h, 4 h, 6 h, 8 h and 24 h. Before analysis and detection, all samples were stored at -80°C.

PC12 cells = settings: cited from earlier work
[4] = mice; cited from earlier work
[5] = mice; cited from earlier work; remark: listed apart in the source
[6] = cited from earlier work
[7] = cited from earlier work; remark: listed apart in the source
[8] = Intragastric administration (10 mg/kg), 10 mg/kg

T1 sequence (Q2M2I8 27-365 limits assumed): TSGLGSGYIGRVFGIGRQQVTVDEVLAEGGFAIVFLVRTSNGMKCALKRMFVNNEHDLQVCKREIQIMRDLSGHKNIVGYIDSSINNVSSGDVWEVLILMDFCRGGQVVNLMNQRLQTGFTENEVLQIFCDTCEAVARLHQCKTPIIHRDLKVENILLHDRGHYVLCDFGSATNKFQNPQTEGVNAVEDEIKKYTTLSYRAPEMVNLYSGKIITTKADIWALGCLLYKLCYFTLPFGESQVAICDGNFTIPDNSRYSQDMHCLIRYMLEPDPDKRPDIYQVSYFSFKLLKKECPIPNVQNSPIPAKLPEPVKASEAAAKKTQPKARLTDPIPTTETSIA

CC(O)(CO)C[C@](C)(N)COc1ccc(-c2ccnc(C(F)F)c2)nc1C(F)F (single isomer, unassigned) [Compound 1-1]
IC50 (AAK1): ≤ 0.02 µM | IC50 (hERG potassium channel): 6.73 µM | AUC(0-t) [1, 8]: 4400 ng·h/mL | T1/2 [1, 8]: 4.82 h | Percentage of drug remaining after 60 min of incubation [2]: 93.7%

CC(O)(CO)C[C@](C)(N)COc1ccc(-c2ccnc(C(F)F)c2)nc1C(F)F (single isomer, unassigned) [Compound 1-2]
AUC(0-t) [3]: 4050 ng·h/mL | half-life [3]: 4.52 h | IC50 (AAK1): ≤ 0.02 µM | IC50 (hERG potassium channel): 13.7 µM | clearance ([1]; mouse, Intravenous administration (2.5 mg/kg)): 57.8 mL/min/kg | Vd ([1]; mouse, Intravenous administration (2.5 mg/kg), read-out: Vdss): 10.5 L/kg | half-life ([1]; mouse, iv, 2.5 mg/kg, Intravenous administration (2.5 mg/kg)): 2.53 h | AUC(0-t) ([1]; mouse, iv, 2.5 mg/kg, Intravenous administration (2.5 mg/kg), read-out: AUC0-t): 630 ng·h/mL | half-life ([1]; mouse, po, 10 mg/kg, Intragastric administration (10 mg/kg)): 3.09 h | AUC(0-t) ([1]; mouse, po, 10 mg/kg, Intragastric administration (10 mg/kg), read-out: AUC0-t): 3520 ng·h/mL | Percentage of drug remaining after 60 min of incubation [2]: > 99%

COC(=O)[C@@]1(O)C[C@H]2O[C@]1(C)n1c3ccccc3c3c4c(c5c6ccccc6n2c5c31)C(=O)NC4 [Compound K252a]
ErbB4 accumulation in the plasma membrane or in close proximity to the plasma membrane (PC12 cells): increased | ErbB4 expression (PC12 cells): increased | neuregulin-1-induced neurite outgrowth (PC12 cells): potentiates

COc1ncccc1-c1cnn2ccc(N3CCN(C(=O)OC(C)C)CC3)nc12 [LP-935509]
mechanical allodynia induced by SNL [4]: significantly attenuate | pain responses in phase II of the formalin model [5]: significantly attenuate | pain responses in the mouse streptozotocin-induced diabetic neuropathy model [6]: significantly attenuate | pain responses in the mouse chronic constriction injury (CCI) model [7]: significantly attenuate
